Data as given in patent publication US20100298141A1, “SUBSTITUTED PYRIDINE N-OXIDE HERBICIDES” (E. I. DU PONT DE NEMOURS AND COMPANY, priority 2007, published 2010).

How the values were obtained:
Assay in all cases: Test F preemergence test
bermudagrass = type: in vivo, Cynodon dactylon; conditions: scale 0 to 100
In short: (§1)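 Compound in a non-phytotoxic solvent blend with surfactant is applied preemergence to planted seeds or postemergence to sugarcane plants. Plants and controls stay in the greenhouse 14 to 21 days before visual comparison.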

Surinam grass = type: in vivo, Brachiaria decumbens; conditions: scale 0 to 100; for Surinam Grass plant response rating: 125 g ai/ha
In short: as §1

goosegrass = type: in vivo, Eleusine indica; conditions: scale 0 to 100
In short: as §1

johnsongrass = type: in vivo, Sorghum halepense; conditions: scale 0 to 100
In short: as §1

pitted morningglory = type: in vivo, Ipomoea lacunosa; conditions: scale 0 to 100
In short: as §1

purple nutsedge = type: in vivo, Cyperus rotundus; conditions: scale 0 to 100
In short: as §1

common ragweed = type: in vivo, Ambrosia elation; conditions: scale 0 to 100; for Ragweed plant response rating: 125 g ai/ha
In short: as §1

guineagrass = type: in vivo, Panicum maximum; conditions: scale 0 to 100
In short: as §1

southern sandbur = type: in vivo, Cenchrus echinatus; conditions: scale 0 to 100; for Sandbur plant response rating: 125 g ai/ha
In short: as §1

prickly sida = type: in vivo, Sida spinosa; conditions: scale 0 to 100
In short: as §1

Italian ryegrass = type: in vivo, Lolium multiflorum; conditions: scale 0 to 100; for Ryegrass, Italian plant response rating: 125 g ai/ha
In short: as §1

common purslane = type: in vivo, Portulaca oleracea; conditions: scale 0 to 100
In short: as §1

broadleaf signalgrass = type: in vivo, Brachiaria platyphylla; conditions: scale 0 to 100; for Signalgrass plant response rating: 125 g ai/ha
In short: as §1

naked crabgrass = type: in vivo, Digitaria nuda; conditions: scale 0 to 100
In short: as §1

itchgrass = type: in vivo, Rottboellia cochinchinensis; conditions: scale 0 to 100
In short: as §1

field bindweed = type: in vivo, Convolvulus arvensis; conditions: scale 0 to 100
In short: as §1

CCn1nc(C(F)(F)F)c(CS(=O)(=O)c2cccc[n+]2[O-])c1OCC(F)(F)F [Compound 63]
Plant response rating, Bermudagrass (bermudagrass; 16 g ai/ha, preemergence): 50
Bermudagrass plant response rating (bermudagrass; 62 g ai/ha, Preemergence): 95
Bermudagrass plant response rating (bermudagrass; 125 g ai/ha, preemergence): 100
Plant response rating, Bermudagrass (bermudagrass; Preemergence, 31 g ai/ha): 80
Plant response rating, Surinam Grass (Surinam grass; 16 g ai/ha, preemergence): 70
Surinam Grass plant response rating (Surinam grass; preemergence): 100
Plant response rating, Surinam Grass (Surinam grass; Preemergence, 62 g ai/ha): 100
Plant response rating, Surinam Grass (Surinam grass; Preemergence, 31 g ai/ha): 80
Plant response rating, Goosegrass (goosegrass; 16 g ai/ha, preemergence): 80
Goosegrass plant response rating (goosegrass; 62 g ai/ha, Preemergence): 98
Goosegrass plant response rating (goosegrass; 125 g ai/ha, preemergence): 100
Plant response rating, Goosegrass (goosegrass; Preemergence, 31 g ai/ha): 90
Plant response rating, Johnsongrass (johnsongrass; 16 g ai/ha, preemergence): 35
Johnsongrass plant response rating (johnsongrass; 62 g ai/ha, Preemergence): 100
Johnsongrass plant response rating (johnsongrass; 125 g ai/ha, preemergence): 100
Plant response rating, Johnsongrass (johnsongrass; Preemergence, 31 g ai/ha): 80
Plant response rating, Morningglory (pitted morningglory; 16 g ai/ha, preemergence): 0
Morningglory plant response rating (pitted morningglory; 62 g ai/ha, Preemergence): 0
Morningglory plant response rating (pitted morningglory; 125 g ai/ha, preemergence): 35
Plant response rating, Morningglory (pitted morningglory; Preemergence, 31 g ai/ha): 0
Plant response rating, Purple Nutsedge (purple nutsedge; 16 g ai/ha, preemergence): 0
Purple Nutsedge plant response rating (purple nutsedge; 62 g ai/ha, Preemergence): 65
Purple Nutsedge plant response rating (purple nutsedge; 125 g ai/ha, preemergence): 75
Plant response rating, Purple Nutsedge (purple nutsedge; Preemergence, 31 g ai/ha): 15
Plant response rating, Ragweed (common ragweed; 16 g ai/ha, preemergence): 0
Ragweed plant response rating (common ragweed; preemergence): 100
Plant response rating, Ragweed (common ragweed; Preemergence, 62 g ai/ha): 90
Plant response rating, Ragweed (common ragweed; Preemergence, 31 g ai/ha): 40
Plant response rating, Guineagrass (guineagrass; 16 g ai/ha, preemergence): 70
Guineagrass plant response rating (guineagrass; 62 g ai/ha, Preemergence): 100
Guineagrass plant response rating (guineagrass; 125 g ai/ha, preemergence): 100
Plant response rating, Guineagrass (guineagrass; Preemergence, 31 g ai/ha): 95
Plant response rating, Sandbur (southern sandbur; 16 g ai/ha, preemergence): 65
Sandbur plant response rating (southern sandbur; preemergence): 100
Plant response rating, Sandbur (southern sandbur; Preemergence, 62 g ai/ha): 100
Plant response rating, Sandbur (southern sandbur; Preemergence, 31 g ai/ha): 100
Plant response rating, Prickly Sida (prickly sida; 16 g ai/ha, preemergence): 20
Prickly Sida plant response rating (prickly sida; 62 g ai/ha, Preemergence): 65
Prickly Sida plant response rating (prickly sida; 125 g ai/ha, preemergence): 90
Plant response rating, Prickly Sida (prickly sida; Preemergence, 31 g ai/ha): 65
Plant response rating, Ryegrass, Italian (Italian ryegrass; 16 g ai/ha, preemergence): 0
Ryegrass, Italian plant response rating (Italian ryegrass; preemergence): 100
Plant response rating, Ryegrass, Italian (Italian ryegrass; Preemergence, 62 g ai/ha): 80
Plant response rating, Ryegrass, Italian (Italian ryegrass; Preemergence, 31 g ai/ha): 60
Plant response rating, Purslane (common purslane; 16 g ai/ha, preemergence): 0
Purslane plant response rating (common purslane; 62 g ai/ha, Preemergence): 0
Purslane plant response rating (common purslane; 125 g ai/ha, preemergence): 20
Plant response rating, Purslane (common purslane; Preemergence, 31 g ai/ha): 0
Plant response rating, Signalgrass (broadleaf signalgrass; 16 g ai/ha, preemergence): 15
Signalgrass plant response rating (broadleaf signalgrass; preemergence): 100
Plant response rating, Signalgrass (broadleaf signalgrass; Preemergence, 62 g ai/ha): 100
Plant response rating, Signalgrass (broadleaf signalgrass; Preemergence, 31 g ai/ha): 40
Plant response rating, Crabgrass, Naked (naked crabgrass; 16 g ai/ha, preemergence): 70
Crabgrass, Naked plant response rating (naked crabgrass; 62 g ai/ha, Preemergence): 100
Crabgrass, Naked plant response rating (naked crabgrass; 125 g ai/ha, preemergence): 100
Plant response rating, Crabgrass, Naked (naked crabgrass; Preemergence, 31 g ai/ha): 70
Plant response rating, Itchgrass (itchgrass; 16 g ai/ha, preemergence): 10
Itchgrass plant response rating (itchgrass; 62 g ai/ha, Preemergence): 80
Itchgrass plant response rating (itchgrass; 125 g ai/ha, preemergence): 90
Plant response rating, Itchgrass (itchgrass; Preemergence, 31 g ai/ha): 50
Plant response rating, Field Bindweed (field bindweed; 16 g ai/ha, preemergence): 0
Field Bindweed plant response rating (field bindweed; 62 g ai/ha, Preemergence): 0
Field Bindweed plant response rating (field bindweed; 125 g ai/ha, preemergence): 0
Plant response rating, Field Bindweed (field bindweed; Preemergence, 31 g ai/ha): 0

CCn1nc(C(F)(F)F)c(CS(=O)(=O)c2cc(C)cc[n+]2[O-])c1OCC(F)(F)F [Compound 64]
Plant response rating, Bermudagrass (bermudagrass; 16 g ai/ha, preemergence): 0
Bermudagrass plant response rating (bermudagrass; 62 g ai/ha, Preemergence): 75
Bermudagrass plant response rating (bermudagrass; 125 g ai/ha, preemergence): 90
Plant response rating, Bermudagrass (bermudagrass; Preemergence, 31 g ai/ha): 25
Plant response rating, Surinam Grass (Surinam grass; 16 g ai/ha, preemergence): 10
Surinam Grass plant response rating (Surinam grass; preemergence): 100
Plant response rating, Surinam Grass (Surinam grass; Preemergence, 62 g ai/ha): 95
Plant response rating, Surinam Grass (Surinam grass; Preemergence, 31 g ai/ha): 90
Plant response rating, Goosegrass (goosegrass; 16 g ai/ha, preemergence): 75
Goosegrass plant response rating (goosegrass; 62 g ai/ha, Preemergence): 90
Goosegrass plant response rating (goosegrass; 125 g ai/ha, preemergence): 98
Plant response rating, Goosegrass (goosegrass; Preemergence, 31 g ai/ha): 90
Plant response rating, Johnsongrass (johnsongrass; 16 g ai/ha, preemergence): 0
Johnsongrass plant response rating (johnsongrass; 62 g ai/ha, Preemergence): 90
Johnsongrass plant response rating (johnsongrass; 125 g ai/ha, preemergence): 100
Plant response rating, Johnsongrass (johnsongrass; Preemergence, 31 g ai/ha): 75
Plant response rating, Morningglory (pitted morningglory; 16 g ai/ha, preemergence): 0
Morningglory plant response rating (pitted morningglory; 62 g ai/ha, Preemergence): 0
Morningglory plant response rating (pitted morningglory; 125 g ai/ha, preemergence): 35
Plant response rating, Morningglory (pitted morningglory; Preemergence, 31 g ai/ha): 0
Plant response rating, Purple Nutsedge (purple nutsedge; 16 g ai/ha, preemergence): 20
Purple Nutsedge plant response rating (purple nutsedge; 62 g ai/ha, Preemergence): 50
Purple Nutsedge plant response rating (purple nutsedge; 125 g ai/ha, preemergence): 80
Plant response rating, Purple Nutsedge (purple nutsedge; Preemergence, 31 g ai/ha): 50
Plant response rating, Ragweed (common ragweed; 16 g ai/ha, preemergence): 0
Ragweed plant response rating (common ragweed; preemergence): 85
Plant response rating, Ragweed (common ragweed; Preemergence, 62 g ai/ha): 50
Plant response rating, Ragweed (common ragweed; Preemergence, 31 g ai/ha): 30
Plant response rating, Guineagrass (guineagrass; 16 g ai/ha, preemergence): 80
Guineagrass plant response rating (guineagrass; 62 g ai/ha, Preemergence): 100
Guineagrass plant response rating (guineagrass; 125 g ai/ha, preemergence): 100
Plant response rating, Guineagrass (guineagrass; Preemergence, 31 g ai/ha): 98
Plant response rating, Sandbur (southern sandbur; 16 g ai/ha, preemergence): 25
Sandbur plant response rating (southern sandbur; preemergence): 100
Plant response rating, Sandbur (southern sandbur; Preemergence, 62 g ai/ha): 80
Plant response rating, Sandbur (southern sandbur; Preemergence, 31 g ai/ha): 80
Plant response rating, Prickly Sida (prickly sida; 16 g ai/ha, preemergence): 0
Prickly Sida plant response rating (prickly sida; 62 g ai/ha, Preemergence): 30
Prickly Sida plant response rating (prickly sida; 125 g ai/ha, preemergence): 75
Plant response rating, Prickly Sida (prickly sida; Preemergence, 31 g ai/ha): 0
Plant response rating, Ryegrass, Italian (Italian ryegrass; 16 g ai/ha, preemergence): 0
Ryegrass, Italian plant response rating (Italian ryegrass; preemergence): 90
Plant response rating, Ryegrass, Italian (Italian ryegrass; Preemergence, 62 g ai/ha): 75
Plant response rating, Ryegrass, Italian (Italian ryegrass; Preemergence, 31 g ai/ha): 20
Plant response rating, Purslane (common purslane; 16 g ai/ha, preemergence): 0
Purslane plant response rating (common purslane; 62 g ai/ha, Preemergence): 30
Purslane plant response rating (common purslane; 125 g ai/ha, preemergence): 60
Plant response rating, Purslane (common purslane; Preemergence, 31 g ai/ha): 10
Plant response rating, Signalgrass (broadleaf signalgrass; 16 g ai/ha, preemergence): 30
Signalgrass plant response rating (broadleaf signalgrass; preemergence): 100
Plant response rating, Signalgrass (broadleaf signalgrass; Preemergence, 62 g ai/ha): 100
Plant response rating, Signalgrass (broadleaf signalgrass; Preemergence, 31 g ai/ha): 30
Plant response rating, Crabgrass, Naked (naked crabgrass; 16 g ai/ha, preemergence): 30
Crabgrass, Naked plant response rating (naked crabgrass; 62 g ai/ha, Preemergence): 100
Crabgrass, Naked plant response rating (naked crabgrass; 125 g ai/ha, preemergence): 100
Plant response rating, Crabgrass, Naked (naked crabgrass; Preemergence, 31 g ai/ha): 40
Plant response rating, Itchgrass (itchgrass; 16 g ai/ha, preemergence): 0
Itchgrass plant response rating (itchgrass; 62 g ai/ha, Preemergence): 30
Itchgrass plant response rating (itchgrass; 125 g ai/ha, preemergence): 75
Plant response rating, Itchgrass (itchgrass; Preemergence, 31 g ai/ha): 30
Plant response rating, Field Bindweed (field bindweed; 16 g ai/ha, preemergence): 0
Field Bindweed plant response rating (field bindweed; 62 g ai/ha, Preemergence): 0
Field Bindweed plant response rating (field bindweed; 125 g ai/ha, preemergence): 40
Plant response rating, Field Bindweed (field bindweed; Preemergence, 31 g ai/ha): 0
